Data on 2 compounds can be found in ChEMBL document CHEMBL1123664, “Preparation and antitumor activity of new mitomycin A analogues” (J Med Chem, 1987).

Where “and” joins values, the source holds several entries; their conditions need not be identical. Equal entries are not always repeated.

In data set [1] the test system is P388. The data set can be described thus: Antitumor activity against intraperitoneally implanted P388 leukemia cells in mice at an optimal dose of 12.8 mg/kg expressed as […] effective dose. As to conditions: Mus musculus, P388, ip, route intraperitoneal, read-out: MED. The data set is classed as functional.
The subject of data set [2] is P388. As to the kind of experiment: Antitumor activity against intraperitoneally implanted P388 leukemia cells in mice expressed as ratio of median survival time for treated group to that of control group at an optimal dose of 12.8 mg/kg. The format is functional, Mus musculus. To be noted: route intraperitoneal.
Data set [3] deals with P388. The data set can be described thus: Antitumor activity against intraperitoneally implanted P388 leukemia cells in mice expressed as ratio of median survival time for treated group to that of control group at an optimal dose of 3.2 mg/kg. To be noted: route intraperitoneal. The format is functional, Mus musculus.
A short description of data set [4]: Partition coefficient (logP). The format is physicochemical. To be noted: octanol/water.
Data set [5] deals with P388. As to the kind of experiment: Antitumor activity against intraperitoneally implanted P388 leukemia cells in mice expressed as […] effective dose at an optimal dose of 3.2 mg/kg. The data set is classed as functional. As to conditions: Mus musculus, P388, ip, route intraperitoneal, read-out: MED.

As to `CO[C@@]12C(COC(N)=O)C3=C(C(=O)C(C)=C(OCC(O)CO)C3=O)N1CC1NC12` (stereo not given in full), the minimal effective dose at 12.8 mg/kg in data set [1] came to 0.2 mg/kg. In addition, the T/C in data set [2] is 225% and 205%.

Consider `CO[C@@]12C(COC(N)=O)C3=C(C(=O)C(C)=C(OCc4ccccc4)C3=O)N1CC1NC12` (stereo not given in full), for which the T/C in data set [3] is 167%. The compound also had a logP in data set [4] of 2.22. For the same compound, in data set [5], the minimal effective dose at 3.2 mg/kg was less than 0.2 mg/kg.
